The values that follow come from patent US20230114728A1 (Venatorx Pharmaceuticals, Inc., priority 2019, published 2023).

In brackets after ≈: the same amount, converted by molar mass.

Common to all, as to assay type: cell-based
One assay has as its system E. coli AG100. Kind of assay: Broth microdilution MIC in CAMHB. As to conditions: Escherichia coli; E. coli AG100 (wild-type parent); MHB; read-out: Minimum Inhibitory Concentration, E. coli AG100. The gist of the method:
(§1)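 Hyper-permeable or efflux-deficient strains serve to probe outer-membrane penetration. Growth inhibition is scored visually after 16-20 h at 37° C in CAMHB, starting from 2-8×10^5 CFU/mL.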

The test system of a further assay is E. coli ATCC 25922. Kind of assay: Broth microdilution MIC in CAMHB. As to conditions: Escherichia coli, ATCC25922; E. coli ATCC 25922; MHB; read-out: Minimum Inhibitory Concentration, E. coli 25922. The gist of the method:
as §1

The next assay concerns P. aeruginosa ATCC 35151. Put plainly: Broth microdilution MIC in CAMHB. As to conditions: Pseudomonas aeruginosa, ATCC35151; MHB; hyper-permeable strain; read-out: Minimum Inhibitory Concentration, P. aeruginosa ATCC 35151. The gist of the method:
as §1

The test system of assay [1] is K. pneumoniae SI-117 producing VIM-1. Kind of assay: Broth microdilution MIC in CAMHB. The following applies: Klebsiella pneumoniae, read-out: Minimum Inhibitory Concentration, K. pneumoniae SI-117. The essentials:
as §1

The subject of assay [2] is K. pneumoniae UMM producing SHV-5 and KPC-2. Put plainly: Broth microdilution MIC in CAMHB. The following applies: Klebsiella pneumoniae, read-out: Minimum Inhibitory Concentration, K. pneumoniae UMM. The gist of the method:
as §1

The test system of another assay is E. coli 901C. Put plainly: Broth microdilution MIC in CAMHB. As to conditions: Escherichia coli; E. coli 901C (hyper-permeable); MHB; read-out: Minimum Inhibitory Concentration, E. coli 901C. The gist of the method: as §1
The test system of another assay is E. coli D22. Kind of assay: Broth microdilution MIC in CAMHB. The following applies: Escherichia coli; E. coli D22 (hyper-permeable); MHB; read-out: Minimum Inhibitory Concentration, E. coli D22. The gist of the method:
as §1

A further assay relates to A. baumannii ATCC 19606. Put plainly: Broth microdilution MIC in CAMHB. As to conditions: Acinetobacter baumannii, ATCC19606; MHB; read-out: Minimum Inhibitory Concentration, A. baumannii ATCC 19606. The essentials: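 MIC, read by eye, is the lowest compound concentration giving no bacterial growth after 16-20 h at 37° C. Test compounds are serially diluted 2-fold in CAMHB and seeded with 2-8×10^5 CFU/mL of bacteria taken from a 3-5 h shaking culture, following CLSI methods.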

For another assay, the system named is P. aeruginosa ATCC 27853. Kind of assay: Broth microdilution MIC in CAMHB. The following applies: Pseudomonas aeruginosa, ATCC27853; MHB; read-out: Minimum Inhibitory Concentration, P. aeruginosa ATCC 27853. The essentials: as §1
Assay [3] relates to P. aeruginosa (ΔmexAB-oprM). Put plainly: Broth microdilution MIC in CAMHB. The following applies: Pseudomonas aeruginosa, read-out: Minimum Inhibitory Concentration, P. aeruginosa ΔmexAB-OprM. The gist of the method: as §1
In assay [4] the test system is K. pneumoniae 848844 producing SHV-11 and KPC-2. Kind of assay: Broth microdilution MIC in CAMHB. The following applies: Klebsiella pneumoniae, read-out: Minimum Inhibitory Concentration, K. pneumoniae 848844. The essentials:
as §1

The test system of a further assay is E. coli AG100A. Kind of assay: Broth microdilution MIC in CAMHB. As to conditions: Escherichia coli, read-out: Minimum Inhibitory Concentration, E. coli AG100A. The gist of the method:
as §1

For the next assay, the system named is N. gonorrhoeae WHO L. Kind of assay: Liquid broth MIC in Fastidious broth. The following applies: Neisseria gonorrhoeae; N. gonorrhoeae strain WHO L; Fastidious broth; read-out: Minimum Inhibitory Concentration, N. gonorrhoeae WHO L. The essentials:
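Colonies were swabbed from chocolate agar after 24 h growth and standardised by optical density at 600 nm. Compounds were serially diluted twofold in Fastidious broth, and bacteria added to give 5×10^5 CFU/mL. After about 24 h at 36 °C in 5% CO2, the lowest concentration allowing under 10% growth was taken as MIC.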

Consider `CS(=O)(=O)N1CCN(C(=O)N[C@@H](C(=O)N[C@H]2Cc3cccc(C(=O)O)c3OB2O)c2c(F)cc(O)cc2F)C1=O` (single isomer, unassigned) [Example 135], for which the MIC with E. coli AG100 was 32 to 64 µg/mL (≈ 55 to 110 µM); in the assay on E. coli ATCC 25922 it was 8 to 16 µg/mL (≈ 13.7 to 27.5 µM); in the assay with P. aeruginosa ATCC 35151 it was 2 to 4 µg/mL (≈ 3.43 to 6.87 µM); in assay [1], 32 to 64 µg/mL (≈ 55 to 110 µM); in [2], 32 to 64 µg/mL (≈ 55 to 110 µM); in the assay on E. coli 901C, less than 0.25 µg/mL. Further, the MIC is 2 to 4 µg/mL (≈ 3.43 to 6.87 µM) with E. coli D22; greater than 128 µg/mL in the assay with A. baumannii ATCC 19606; greater than 128 µg/mL with P. aeruginosa ATCC 27853; 32 to 64 µg/mL (≈ 55 to 110 µM) in assay [3]; 32 to 64 µg/mL (≈ 55 to 110 µM) in assay [4]; 0.5 to 1 µg/mL (≈ 0.859 to 1.72 µM) in the assay on E. coli AG100A. The MIC with N. gonorrhoeae WHO L lay within 16 to 32 µg/mL (≈ 27.5 to 55 µM).

Turning to `CS(=O)(=O)N1CCN(C(=O)N[C@H](C(=O)N[C@H]2Cc3cccc(C(=O)O)c3OB2O)c2c(F)cc(O)cc2F)C1=O` (single isomer, unassigned) [Example 136], the MIC is greater than 128 µg/mL in the assay on E. coli AG100; greater than 128 µg/mL with E. coli ATCC 25922; 2 to 4 µg/mL (≈ 3.43 to 6.87 µM) with P. aeruginosa ATCC 35151; greater than 128 µg/mL in assay [1]; greater than 128 µg/mL in assay [2]; 0.5 to 1 µg/mL (≈ 0.859 to 1.72 µM) with E. coli 901C. The MIC in the assay on E. coli D22 was 8 to 16 µg/mL (≈ 13.7 to 27.5 µM); with A. baumannii ATCC 19606, greater than 128 µg/mL; in the assay on P. aeruginosa ATCC 27853, greater than 128 µg/mL; in assay [3], greater than 128 µg/mL; in [4], greater than 128 µg/mL; with E. coli AG100A, 8 to 16 µg/mL (≈ 13.7 to 27.5 µM). In addition, in the assay with N. gonorrhoeae WHO L, the MIC was greater than 64 µg/mL.

For the compound `CCN1CCN(C(=O)N[C@H](C(=O)N[C@H]2Cc3cccc(C(=O)O)c3OB2O)c2ccc(C(=O)O)c(F)c2F)C(=O)C1=O` (single isomer, unassigned) [Example 139], the MIC is 32 to 64 µg/mL (≈ 54.4 to 109 µM) in the assay with E. coli AG100; greater than 128 µg/mL with E. coli ATCC 25922; 0.5 to 1 µg/mL (≈ 0.85 to 1.7 µM) in the assay on P. aeruginosa ATCC 35151; greater than 128 µg/mL in assay [1]; 32 to 64 µg/mL (≈ 54.4 to 109 µM) in assay [2]; less than 0.25 µg/mL in the assay with E. coli 901C. For the same compound, the MIC was 2 to 4 µg/mL (≈ 3.4 to 6.8 µM) with E. coli D22; greater than 128 µg/mL in the assay with A. baumannii ATCC 19606; greater than 128 µg/mL with P. aeruginosa ATCC 27853; 8 to 16 µg/mL (≈ 13.6 to 27.2 µM) in assay [3]; greater than 128 µg/mL in [4]; 8 to 16 µg/mL (≈ 13.6 to 27.2 µM) in the assay on E. coli AG100A. Moreover, the MIC with N. gonorrhoeae WHO L fell in the range of 4 to 8 µg/mL (≈ 6.8 to 13.6 µM).

Regarding `CCN1CCN(C(=O)N[C@@H](C(=O)N[C@H]2Cc3cccc(C(=O)O)c3OB2O)c2ccc(C(=O)O)c(F)c2F)C(=O)C1=O` (single isomer, unassigned) [Example 140], the MIC is 32 to 64 µg/mL (≈ 54.4 to 109 µM) with E. coli AG100; 32 to 64 µg/mL (≈ 54.4 to 109 µM) with E. coli ATCC 25922; less than 0.25 µg/mL with P. aeruginosa ATCC 35151; greater than 128 µg/mL in [1]; 32 to 64 µg/mL (≈ 54.4 to 109 µM) in assay [2]; less than 0.25 µg/mL in the assay on E. coli 901C. Further, the MIC was 2 to 4 µg/mL (≈ 3.4 to 6.8 µM) in the assay with E. coli D22; greater than 128 µg/mL with A. baumannii ATCC 19606; greater than 128 µg/mL in the assay with P. aeruginosa ATCC 27853; 8 to 16 µg/mL (≈ 13.6 to 27.2 µM) in assay [3]; greater than 128 µg/mL in assay [4]; 2 to 4 µg/mL (≈ 3.4 to 6.8 µM) in the assay with E. coli AG100A. Moreover, the MIC in the assay on N. gonorrhoeae WHO L was 1 to 2 µg/mL (≈ 1.7 to 3.4 µM).

For the compound `CCN1CCN(C(=O)N[C@H](C(=O)N[C@H]2Cc3cccc(C(=O)O)c3OB2O)c2ccc(C(=O)O)cc2O)C(=O)C1=O` (single isomer, unassigned) [Example 143], the MIC with E. coli AG100 is greater than 128 µg/mL; with E. coli ATCC 25922 it was greater than 128 µg/mL; in the assay with P. aeruginosa ATCC 35151, 2 to 4 µg/mL (≈ 3.52 to 7.04 µM); in assay [1], greater than 128 µg/mL; in assay [2], greater than 128 µg/mL; in the assay on E. coli 901C, 0.5 to 1 µg/mL (≈ 0.88 to 1.76 µM). For the same compound, the MIC in the assay on E. coli D22 is 8 to 16 µg/mL (≈ 14.1 to 28.2 µM); in the assay with A. baumannii ATCC 19606 it was greater than 128 µg/mL; with P. aeruginosa ATCC 27853, greater than 128 µg/mL; in assay [3], greater than 128 µg/mL; in assay [4], greater than 128 µg/mL; in the assay with E. coli AG100A, 32 to 64 µg/mL (≈ 56.3 to 113 µM). The MIC in the assay with N. gonorrhoeae WHO L was greater than 64 µg/mL.

Consider `CCN1CCN(C(=O)N[C@@H](C(=O)N[C@H]2Cc3cccc(C(=O)O)c3OB2O)c2ccc(C(=O)O)cc2O)C(=O)C1=O` (single isomer, unassigned) [Example 144], for which the MIC in the assay on E. coli AG100 is 32 to 64 µg/mL (≈ 56.3 to 113 µM); in the assay on E. coli ATCC 25922, 32 to 64 µg/mL (≈ 56.3 to 113 µM); in the assay on P. aeruginosa ATCC 35151, 0.5 to 1 µg/mL (≈ 0.88 to 1.76 µM); in assay [1] it was greater than 128 µg/mL; in assay [2], 32 to 64 µg/mL (≈ 56.3 to 113 µM); in the assay on E. coli 901C, less than 0.25 µg/mL. Also, the MIC in the assay on E. coli D22 was 2 to 4 µg/mL (≈ 3.52 to 7.04 µM); with A. baumannii ATCC 19606, 32 to 64 µg/mL (≈ 56.3 to 113 µM); with P. aeruginosa ATCC 27853 it was greater than 128 µg/mL; in assay [3], 8 to 16 µg/mL (≈ 14.1 to 28.2 µM); in [4], greater than 128 µg/mL; with E. coli AG100A, 8 to 16 µg/mL (≈ 14.1 to 28.2 µM). Besides, the MIC in the assay with N. gonorrhoeae WHO L lay within 4 to 8 µg/mL (≈ 7.04 to 14.1 µM).
